Earlier results as cited in US20120269803A1, “SUBSTITUTED BENZOSULPHONAMIDES” (BAYER INTELLECTUAL PROPERTY GMBH, priority 2009, published 2012).

How the values were obtained:
[1] = phase I/II clinical trials in humans, literature [19]
colon cancer = details: oral treatment, mouse models, literature [18]
MEK1/2 = MEK1/2 inhibitor, literature [17]

IC50 (MEK1/2): low nanomolar range
SMILES: O=C(NOCC1CC1)c1ccc(F)c(F)c1Nc1ccc(I)cc1Cl [PD184352]
clinical efficacy [1]: insufficient efficacy
colon cancer growth in vivo (colon cancer): inhibit colon cancer growth in vivo
